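96-well plates; 48 h exposure; 5 concentrations. Endpoints by linear interpolation between flanking doses. Not reached: highest tested concentration assigned. GI50: concentration for 50% inhibition of growth. The concentration for full growth arrest is given as TGI.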
Tests used:
Assay in all cases: inhibition of tumour cell growth, NCI panel, 48 h
MDA-MB-231 breast = test system: MDA-MB-231 breast
DU-145 prostate = test system: DU-145 prostate
SK-MEL-2 melanoma = test system: SK-MEL-2 melanoma
HCT-15 colon = test system: HCT-15 colon
SN12C renal = test system: SN12C renal
OVCAR-4 ovarian = test system: OVCAR-4 ovarian
LOX IMVI melanoma = test system: LOX IMVI melanoma
OVCAR-8 ovarian = test system: OVCAR-8 ovarian
NCI-H522 lung = test system: NCI-H522 lung
CCRF-CEM leukemia = test system: CCRF-CEM leukemia
SW-620 colon = test system: SW-620 colon
NCI/ADR-RES ovarian = test system: NCI/ADR-RES ovarian
NCI-H23 lung = test system: NCI-H23 lung
SNB-19 CNS = test system: SNB-19 CNS
A498 renal = test system: A498 renal
HS 578T breast = test system: HS 578T breast
T-47D breast = test system: T-47D breast
MCF7 breast = test system: MCF7 breast
COLO 205 colon = test system: COLO 205 colon
IGROV1 ovarian = test system: IGROV1 ovarian
CAKI-1 renal = test system: CAKI-1 renal
BT-549 breast = test system: BT-549 breast
K-562 leukemia = test system: K-562 leukemia
UO-31 renal = test system: UO-31 renal
MALME-3M melanoma = test system: MALME-3M melanoma
HOP-92 NSCLC = test system: HOP-92 NSCLC
HL-60(TB) leukemia = test system: HL-60(TB) leukemia
KM12 colon = test system: KM12 colon
786-0 renal = test system: 786-0 renal
UACC-62 melanoma = test system: UACC-62 melanoma
SK-MEL-5 melanoma = test system: SK-MEL-5 melanoma
SR leukemia = test system: SR leukemia
TK-10 renal = test system: TK-10 renal
M14 melanoma = test system: M14 melanoma
MOLT-4 leukemia = test system: MOLT-4 leukemia
SF-539 CNS = test system: SF-539 CNS
U251 CNS = test system: U251 CNS
UACC-257 melanoma = test system: UACC-257 melanoma
SF-295 CNS = test system: SF-295 CNS
ACHN renal = test system: ACHN renal
HT29 colon = test system: HT29 colon
SK-OV-3 ovarian = test system: SK-OV-3 ovarian
OVCAR-5 ovarian = test system: OVCAR-5 ovarian
SF-268 CNS = test system: SF-268 CNS
SNB-75 CNS = test system: SNB-75 CNS
PC-3 prostate = test system: PC-3 prostate
RPMI-8226 leukemia = test system: RPMI-8226 leukemia
NCI-H226 lung = test system: NCI-H226 lung
A549 NSCLC = test system: A549 NSCLC
EKVX NSCLC = test system: EKVX NSCLC
HCT-116 colon = test system: HCT-116 colon
SK-MEL-28 melanoma = test system: SK-MEL-28 melanoma
HCC-2998 colon = test system: HCC-2998 colon
RXF 393 renal = test system: RXF 393 renal
OVCAR-3 ovarian = test system: OVCAR-3 ovarian
NCI-H460 lung = test system: NCI-H460 lung

For `Cc1cc(O)cc(-c2nn(C)cc2-c2cc(N3CCOCC3)nc(-c3cccnc3)n2)c1`, the GI50 (MDA-MB-231 breast) was 5.82 µM, the TGI (MDA-MB-231 breast) was 38 µM and the GI50 (DU-145 prostate) was 3.97 µM. The TGI (DU-145 prostate) was greater than 100 µM, the GI50 (SK-MEL-2 melanoma) was 6.28 µM and the TGI (SK-MEL-2 melanoma) was 31.1 µM. For the same molecule, the GI50 (HCT-15 colon) was 2.63 µM, the TGI (HCT-15 colon) was 23.4 µM and the GI50 (SN12C renal) was 5.51 µM. For the same molecule, the TGI (SN12C renal) was greater than 100 µM, the GI50 (OVCAR-4 ovarian) was 7.74 µM and the TGI (OVCAR-4 ovarian) was greater than 100 µM. For the same molecule, the GI50 (LOX IMVI melanoma) was 4.16 µM, the TGI (LOX IMVI melanoma) was 27.3 µM and the GI50 (OVCAR-8 ovarian) was 7.11 µM. The TGI (OVCAR-8 ovarian) was greater than 100 µM, the GI50 (NCI-H522 lung) was 2.79 µM and the TGI (NCI-H522 lung) was 18.1 µM. For the same molecule, the GI50 (CCRF-CEM leukemia) was 2.72 µM, the TGI (CCRF-CEM leukemia) was 33.9 µM and the GI50 (SW-620 colon) was 8.14 µM. The TGI (SW-620 colon) was 48.1 µM, the GI50 (NCI/ADR-RES ovarian) was 3.43 µM and the TGI (NCI/ADR-RES ovarian) was 33 µM. For the same molecule, the GI50 (NCI-H23 lung) was 5.31 µM, the TGI (NCI-H23 lung) was 60.3 µM and the GI50 (SNB-19 CNS) was 4.84 µM. It also gave a TGI (SNB-19 CNS) greater than 100 µM, a GI50 (A498 renal) of 1.06 µM and a TGI (A498 renal) of 3.24 µM. For the same molecule, the GI50 (HS 578T breast) was 2.04 µM, the TGI (HS 578T breast) was 9.06 µM and the GI50 (T-47D breast) was 2.82 µM. The TGI (T-47D breast) was 39 µM, the GI50 (MCF7 breast) was 1.13 µM and the TGI (MCF7 breast) was 18.1 µM. The GI50 (COLO 205 colon) was 2.9 µM, the TGI (COLO 205 colon) was 9.57 µM and the GI50 (IGROV1 ovarian) was 4.27 µM. The TGI (IGROV1 ovarian) was 72.6 µM, the GI50 (CAKI-1 renal) was 3.32 µM and the TGI (CAKI-1 renal) was greater than 100 µM. For the same molecule, the GI50 (BT-549 breast) was 3.17 µM, the TGI (BT-549 breast) was 20.8 µM and the GI50 (K-562 leukemia) was 1.96 µM. It also gave a TGI (K-562 leukemia) greater than 100 µM, a GI50 (UO-31 renal) of 3.44 µM and a TGI (UO-31 renal) of 43.3 µM. The GI50 (MALME-3M melanoma) was 11.6 µM, the TGI (MALME-3M melanoma) was 40.3 µM and the GI50 (HOP-92 NSCLC) was 1.66 µM. The TGI (HOP-92 NSCLC) was 8.64 µM, the GI50 (HL-60(TB) leukemia) was 2.81 µM and the TGI (HL-60(TB) leukemia) was 20.2 µM. For the same molecule, the GI50 (KM12 colon) was 3.23 µM, the TGI (KM12 colon) was 20.7 µM and the GI50 (786-0 renal) was 2.52 µM. It also gave a TGI (786-0 renal) of 11.6 µM, a GI50 (UACC-62 melanoma) of 1.9 µM and a TGI (UACC-62 melanoma) of 18.7 µM. The GI50 (SK-MEL-5 melanoma) was 1.76 µM, the TGI (SK-MEL-5 melanoma) was 6.89 µM and the GI50 (SR leukemia) was 1.22 µM. For the same molecule, the TGI (SR leukemia) was greater than 100 µM, the GI50 (TK-10 renal) was 8.68 µM and the TGI (TK-10 renal) was 95.3 µM. The GI50 (M14 melanoma) was 3.55 µM, the TGI (M14 melanoma) was 15.8 µM and the GI50 (MOLT-4 leukemia) was 3.65 µM. It also gave a TGI (MOLT-4 leukemia) greater than 100 µM, a GI50 (SF-539 CNS) of 1.88 µM and a TGI (SF-539 CNS) of 4.8 µM. It also gave a GI50 (U251 CNS) of 4.19 µM, a TGI (U251 CNS) of 18.9 µM and a GI50 (UACC-257 melanoma) of 13.4 µM. The TGI (UACC-257 melanoma) was 35.4 µM, the GI50 (SF-295 CNS) was 3.28 µM and the TGI (SF-295 CNS) was 14.6 µM. For the same molecule, the GI50 (ACHN renal) was 3.68 µM, the TGI (ACHN renal) was 41.2 µM and the GI50 (HT29 colon) was 3.39 µM. It also gave a TGI (HT29 colon) of 21.9 µM, a GI50 (SK-OV-3 ovarian) of 6.83 µM and a TGI (SK-OV-3 ovarian) of 43.7 µM. The GI50 (OVCAR-5 ovarian) was 12.2 µM, the TGI (OVCAR-5 ovarian) was greater than 100 µM and the GI50 (SF-268 CNS) was 7.29 µM. The TGI (SF-268 CNS) was greater than 100 µM, the GI50 (SNB-75 CNS) was 1.48 µM and the TGI (SNB-75 CNS) was 4.49 µM. The GI50 (PC-3 prostate) was 2.44 µM, the TGI (PC-3 prostate) was 17.2 µM and the GI50 (RPMI-8226 leukemia) was 2.84 µM. For the same molecule, the TGI (RPMI-8226 leukemia) was 10.9 µM, the GI50 (NCI-H226 lung) was 4.83 µM and the TGI (NCI-H226 lung) was 20.5 µM. The GI50 (A549 NSCLC) was 6.54 µM, the TGI (A549 NSCLC) was greater than 100 µM and the GI50 (EKVX NSCLC) was 10.5 µM. It also gave a TGI (EKVX NSCLC) greater than 100 µM, a GI50 (HCT-116 colon) of 3.06 µM and a TGI (HCT-116 colon) greater than 100 µM. The GI50 (SK-MEL-28 melanoma) was 3.8 µM, the TGI (SK-MEL-28 melanoma) was 21.1 µM and the GI50 (HCC-2998 colon) was 13.9 µM. The TGI (HCC-2998 colon) was 49.5 µM, the GI50 (RXF 393 renal) was 1.7 µM and the TGI (RXF 393 renal) was 6.51 µM. For the same molecule, the GI50 (OVCAR-3 ovarian) was 2.48 µM, the TGI (OVCAR-3 ovarian) was 12.5 µM and the GI50 (NCI-H460 lung) was 3.28 µM. It also gave a TGI (NCI-H460 lung) greater than 100 µM.
